Data on 33 compounds can be found in EP0840609B1, “USE OF UNSUBSTITUTED AND SUBSTITUTED N-(PYRROL-1-YL)PYRIDINAMINES AS ANTICONVULSANT AGENTS” (Aventis Pharmaceuticals Inc., priority 1995, dated 1997).

Structures can show the parent of a compound that is named as a salt.

The first test relates to Male CD-1 mice. The test is described as follows: Supramaximal electroshock in mice (block of tonic seizure / extensor tonus). The test is classed as in vivo. As to conditions: Mus musculus, ip, @ 30 mpk, intraperitoneally, read-out: Inhibition of supramaximal electroshock (protection, normalized percent inhibition). How it is done:
This procedure is used as to predict anticonvulsant activity of a test compound in vivo by its ability to block a full tonic seizure induced by a supramaximal electroshock stimulation as an indication of efficacy in preventing grand mal seizures.
Male CD-1 mice (Charles River) weighing 18-30 grams were housed in accordance with the "NIH Guide to Care and Use of Laboratory Animals" (National Institutes of Health Care Publication 85-23, revised 1985) with a 12 hour light/dark cycle and free access to food and water. On the day of testing, animals are brought to the laboratory and randomly assigned to groups of six for the time course experiments and to test groups of ten for the dose-response experiments.
The apparatus used for the test was the Wahlquist Electroshock Stimulator (Model H), which has a power source of 120 volts ac. A current of 15.5 mA lasting for 300 msec was delivered by placing the terminals of the stimulator across the eyes of the animal. This stimulus results in a tonic seizure, defined as a brief period of hindlimb flexion followed by a prolonged period of hindlimb extension. […] Protection is calculated as a normalized percent inhibition relative to a vehicle treated control group.
A time course is performed to determine the peak time of drug action and then a dose response performed at the peak time to determine drug potency. Mice are dosed in a randomized fashion using a total of 4 dose groups and one vehicle control group. The ED50 value and 95% confidence limits are calculated by a computerized Litchfield and Wilcoxon analysis.
Drugs are prepared dissolved in distilled water and, if insoluble a drop of surfactant is added.. Drugs are routinely administered intraperitoneally for this test and given in a dosage volume of 10 ml/kg.
(The maximal electroshock test induces tonic seizures with an electrical stimulus.)
Consider `CCCN(c1ccncc1F)n1cc(C)c2ccccc21` [N-(3-Fluoro-4-pyridinyl)-N-propyl-3-methyl-1H-indol-1-amine hydrochloride], for which the inhibition at 30 mg/kg was 50%.

Staying with this test, now noted: Mus musculus, ip, @ 60 mpk, intraperitoneally, read-out: Inhibition of supramaximal electroshock (protection, normalized percent inhibition).
With `CCCN(c1ccncc1F)n1cc(C)c2ccccc21` [N-(3-Fluoro-4-pyridinyl)-N-propyl-3-methyl-1H-indol-1-amine hydrochloride], the inhibition at 60 mg/kg is 50%.

The same test, now with this note: Mus musculus, ip, intraperitoneally, dose response at peak time, read-out: INHIBITION OF SUPRAMAXIMAL ELECTROSHOCK IN MICE ED50.
For the compound `Cc1cn(Nc2ccncc2)c2ccccc12.O=C(O)C(=O)O` [3-Methyl-N-(4-pyridinyl)-1H-indol-1-amine oxalate], the median effective dose (ED50) came to 13 mg/kg.
Turning to `NC(=O)N1c2ccccc2C=Cc2ccccc21` [Carbamazepine, reference compound], the 50% effective dose (ED50) was determined as 18.6 mg/kg.
With `O=C1NC(=O)C(c2ccccc2)(c2ccccc2)N1` [Diphenylhydantoin, reference compound], the 50% effective dose (ED50) worked out at 9.4 mg/kg.
In the case of `CCCN(c1ccncc1)n1c(C)ccc1C.O=C(O)/C=C\C(=O)O` [N-(2,5-Dimethyl-1H-pyrrol-1-yl)-N-(n-propyl)-4-pyridinamine maleate], the ED50 is 50.1 mg/kg.
The same measure, in the same setting: then `CCCN(c1ccncc1)n1ccc2ccccc21.Cl` [N-Propyl-N-(4-pyridinyl)-1H-indol-1-amine hydrochloride], with 14.2 mg/kg.

Still in this test, the particulars now being: intraperitoneally, dose response at peak time.
With `CCCN(c1ccncc1)n1cc(C)c2ccccc21.O=C(O)/C=C\C(=O)O` [3-Methyl-N-propyl-N-(4-pvridinyl)-1H-indol-1-amine maleate], the “INHIBITION OF SUPRAMAXIMAL ELECTROSHOCK IN MICE ED50” value is on record as 14.4 mg/kg.

In a further test the test system is brain membrane sodium channels.
Assay: not given
As to conditions: vesicular preparation of male Wistar rat cortices, 25 nM [^3H]batrachotoxin, 60 minutes at 25°C; read-out: Inhibition of [^3H]Batrachotoxin Binding IC50.
`CCCN(c1ccncc1F)n1ccc2cc(O)ccc21` [1-[Propyl-4-(3-fluoropyridinyl)amino]-1H-indol-5-ol hydrochloride]: the IC50 was 70 µM.
Still for that read-out and setting: in the case of `NCCc1cn(Nc2ccncc2)c2ccccc12` [3-Aminoethyl-N-(4-pyridinyl)-1H-indol-1-amine dimaleate] it was 44 µM; in that of `CCCN(c1ccncc1)n1cc(CN)c2ccccc21` [3-Aminomethyl-N-propyl-N-(4-pyridinyl)-1H-indol-1-amine dihydrochloride], 10 µM; in that of `Clc1cn(Nc2ccncc2)c2ccccc12` [3-Chloro-N-(4-pyridinyl)-1H-indol-1-amine salicylate], 11 µM.
In the case of `CCCN(c1ccncc1)n1cc(Cl)c2ccccc21` [3-Chloro-N-propyl-N-(4-pyridinyl)-1H-1-amine hydrochloride], the concentration for half-maximal inhibition (IC50) is 10 µM.
Still for that read-out and setting: then `CCc1cn(N(C)c2ccncc2)c2ccccc12` [3-Ethyl-N-methyl-N-(4-pyridinyl)-1H-indol-1-amine hydrochloride], with 12 µM.
Still for that read-out and setting: in the case of `CCCN(c1ccncc1F)n1cccc1` [3-Fluoro-N-propyl-N-(1H-pvrrol-1-yl)-4-pyridinamine hydrochloride] it was 46 µM; in that of `Cc1cn(Nc2ccncc2)c2ccc(O)cc12` [3-Methyl-1-(4-pyridinylamino)-1H-indol-5-ol], 20 µM.
Regarding `CCCN(c1ccncc1)n1cc(C)c2cc(O)ccc21` [3-Methyl-1-(propyl-4-pyridinylamino)-1H-indol-5-ol hemi-oxalate], the IC50 amounted to 21 µM.
The same measure, in the same setting: then `Cc1cn(Nc2ccncc2)c2ccccc12.O=C(O)C(=O)O` [3-Methyl-N-(4-pyridinyl)-1H-indol-1-amine oxalate], with 11 µM; and `Nc1cnccc1Nn1ccc2ccccc21` [4-[N-(1H-indol-1-yl)]-3,4-pyridinamine, 4-[N-(1H-indol-1-yl)]-3,4-pyridinamine hemihydrate], with 22 µM; and `CCCN(c1ccncc1)n1ccc2cc(Br)ccc21` [5-Bromo-N-propyl-N-(4-pyridinyl)-1H-indol-1-amine maleate], with 14 µM.
The same measure, in the same setting: in the case of `Brc1ccc2c(ccn2Nc2ccncc2)c1` [5-bromo-N-(4-pyridinyl)-1H-indol-1-amine, 5-Bromo-N-(4-pyridinyl)-1H-indol-1-amine maleate] it was 23 µM.
Still for that read-out and setting: then `NC(=O)N1c2ccccc2C=Cc2ccccc21` [Carbamazepine, reference compound], with 94 µM; and `CC(C)N(c1ccncc1)n1ccc2ccccc21` [N-(1-Methylethyl)-N-(4-pyridinyl)-1H-indol-1-amine maleate], with 9 µM; and `c1ccn(Nc2ccncc2)c1` [N-(1H-pyrrol-1-yl)-4-pyridinamine, N-(1H-Pyrrol-1-yl)-4-pyridinamine], with 40 µM.
On to `CC(C)CN(c1ccncc1)n1ccc2ccccc21` [N-(2-Methylpropyl)-N-(4-pyridinyl)-1H-indol-1-amine maleate], for which the half-maximal inhibitory concentration (IC50) came out at 9 µM.
The same measure, in the same setting: then `c1ccc(Nn2ccc3ccccc32)nc1` [N-(2-pyridinyl)-1H-indol-1-amine, N-(2-Pyridinyl)-1H-indol-1-amine], with 12 µM; and `Clc1cnccc1Nn1ccc2ccccc21` [N-(3-Chloro-4-pyridinyl)-1H-indol-1-amine hydrochloride], with 14 µM; and `Cc1cn(Nc2ccncc2Cl)c2ccccc12` [N-(3-Chloro-4-pyridinyl)-3-methyl-1H-indol-1-amine hydrochloride], with 29 µM.
With `CCCN(c1ccncc1Cl)n1cc(C)c2ccccc21` [N-(3-Chloro-4-pyridinyl)-3-methyl-N-propyl-1H-indol-1-amine], the half-inhibitory concentration (IC50) stood at 44 µM.
On the same count and under the same terms, in the case of `CCCN(c1ccncc1Cl)n1ccc2ccccc21` [N-(3-Chloro-4-pyridinyl)-N-propyl-1H-indol-1-amine hydrochloride] it was 32 µM; in that of `Cc1cn(Nc2ccncc2F)c2ccccc12` [N-(3-Fluoro-4-pyridinyl)-3-methyl-1H-indol-1-amine], 42 µM; in that of `CCCN(c1ccncc1F)n1cc(C)c2ccccc21` [N-(3-Fluoro-4-pyridinyl)-N-propyl-3-methyl-1H-indol-1-amine hydrochloride], 31 µM.
Still for that read-out and setting: then `Cc1cnccc1Nn1ccc2ccccc21` [N-(3-Methyl-4-pyridinyl)-1H-indol-1-amine], with 21 µM.
Same read-out and setting: in the case of `c1cncc(Nn2ccc3ccccc32)c1` [N-(3-pyridinyl)-1H-indol-1-amine, N-(3-Pyridinyl)-1H-indol-1-amine] it was 12 µM; in that of `c1ccc2c(c1)ccn2Nc1ccncc1` [N-(4-pyridinyl)-1H-indol-1-amine, N-(4-Pyridinyl)-1H-indol-1-amine maleate], 18 µM; in that of `CCN(c1ccncc1)n1cccc1` [N-Ethyl-N-(1H-pyrrol-1-yl)-4-pyridinamine hydrochloride], 86 µM.
Consider `CCCN(c1ccncc1)n1cccc1` [N-Propyl-N-(1H-pyrrol-1-yl)-4-pyridinamine hydrochloride], for which the half-inhibitory concentration (IC50) was 66 µM.
Same read-out and setting: in the case of `CCCN(c1ccncc1)n1ccc2ccccc21.Cl` [N-Propyl-N-(4-pyridinyl)-1H-indol-1-amine hydrochloride] it was 5 µM.

The term inhibition denotes the share of the control response that was lost under treatment. As a reminder, the ED50 is the dose that gives a 50% effect, or the effect in half of the subjects. In general, IC50 refers to the concentration that gives 50% inhibition.
